Experimental data reported in patent US7285395B2, “Stearoyl-CoA desaturase 4 gene” (Wisconsin Alumni Research Foundation, priority 2004, dated 2007).

What was measured:
Assay type in all cases: in vivo, mouse
Conditions in all cases: heart, 129SV mice, chow diet containing 0.025% T0901317 fed for 2 days
mSCD2 = experiment: quantitative RT-PCR of mSCD2 mRNA in hearts of mice fed test diets
Protocol: (§1) The mice were fed the following diets. A, a high carbohydrate fat-free diet (CHO-FF). B, high carbohydrate fat-free diet supplemented with fish oil (CHO-FO) that was fed for 4 days. C, chow diet supplemented with the LXRα agonist T0901317 (LXR) and fed for 2 days. Total RNA from hearts of mice from each group (n=4) was subjected to quantitative RT-PCR using specific primers as described in the example below. The fold change was calculated after correction for the levels of cyclophilin used as a standard. Each value represents the mean±S.E. (n=4). *, p<0.01; **, p<0.001 versus wild type (Student's t test).
(§2) Animals and Diets—Male C57BL6J and ob/ob mice were obtained from the Jackson Laboratory (Bar Harbor, Me.). 129S6/SvEv mice were purchased from Taconic (Germantown, N.Y.). […]
(§3) Cloning and Expression of the Mouse SCD4 cDNA—A BLAST search of the mouse genomic data base identified a gene with exon sequences highly homologous to the amino acid sequence of mouse SCD1, 2, and 3 (GenBank™ accession numbers AH—002082, M26270, and AF272037, respectively). Using the genomic sequence, a candidate open reading frame of the putative SCD4 was cloned by synthesizing a forward and a reverse primer. […]

mSCD1 = experiment: quantitative RT-PCR of mSCD1 mRNA in hearts of mice fed test diets
Protocol: as §1, §2, §3

mSCD4 = experiment: quantitative RT-PCR of mSCD4 mRNA in hearts of mice fed test diets
Protocol: as §1, §2, §3

SMILES: O=S(=O)(c1ccccc1)N(CC(F)(F)F)c1ccc(C(O)(C(F)(F)F)C(F)(F)F)cc1 [T0901317]
- induction of mouse SCD2 mRNA (mSCD2): 12 fold
- induction of mouse SCD1 mRNA (mSCD1): 18 fold
- induction of mouse SCD4 mRNA (mSCD4): 60 fold
